The nature of series [1]: Time dependence of the antioxidative activity (DPPH test after storage). The settings on record: 1 mol % solution in EtOH:H2O 1:1, storage for 90 days at 40° C. (In general: Loss of DPPH colour is used to gauge radical scavenging.)
The nature of series [2]: Rancimat assay (oxidation stability of soya oil). The note with it: for Protection factor: 0.1% by weight in 4 g of soya oil at 120° and 15 l of air/h. From the text:
The Rancimat method for determination of the oxidation stability of fats and oils is known from the literature (Läubli M. W., Bruttel P. A.: “Determination of the oxidation stability of fats and oils—comparison between the active oxygen method (AOCS Cd 12-57) and the Rancimat method”, Fat. Sci. Technol. 90; 56-58 (1988); or Metrohm “Application Bulletin” Metrohm, No. 232/1 d, “Determination of the antioxidant activity by the Rancimat method”; handbook: “Rancimat 679”, Metrohm, instrument for the determination of oxidation and thermal stability, use instructions 8.679.1001, Metrohm AG, CH-9100 Herisau (Switzerland)).

Series [3] can be described thus: DPPH assay (free-radical scavenging). Type of series: biochemical. The settings on record: for DPPH free-radical scavenging: amount of antioxidant (in mg) needed to inhibit 1 mmol of DPPH; for antioxidative action (DPPH test), in words: comparison with vitamin C; for AE (×10^−3): anti-free-radical efficiency from EC50 and TEC50; for TEC50: reaction time necessary to achieve EC50. How it is done:
In the presence of a free-radical scavenger, the electron is paired, the absorption disappears, and the decoloration proceeds stoichiometrically taking into account the electrons taken up. The absorbance is measured in a photometer, The anti-free-radical property of the substance to be tested is determined by measuring the concentration at which 50% of the 2,2-diphenyl-1-picrylhydrazyl employed has reacted with the free-radical scavenger. This concentration is expressed as EC50, a value which can be considered to be a property of the substance under the given measurement conditions. […] The EC50 value here is a measure of the capacity of the respective compound to scavenge free radicals. The lower the EC50 value, the higher the capacity to scavenge free radicals. […] A further important aspect for the action of the antioxidants is the time in which this EC50 value is reached. This time, measured in minutes, gives the TEC50 value, which allows a conclusion to be drawn on the rate at which these antioxidants scavenge free radicals. The anti-free-radical efficiency (AE) (described in C. Sanchez-Moreno, J. A. Larrauri and F. Saura-Calixto in J. Sci. […] Aliquots of this solution are mixed with various concentrations of the compound to be tested. […] The lower this value, the higher the corresponding antioxidant activity. The reaction time necessary to achieve this value is indicated in the value TEC50 (in minutes). The anti-free-radical efficiency (AE) is obtained from this in accordance with the following relationship: [formula] A higher AE value here indicates a higher activity against free radicals.

Series [4] can be described thus: Lipid assay (ABAP-induced oxidation of linoleic acid in SDS micelles). Type of series: biochemical. The settings on record: for Lipid test: comparative experiment, standardised to tocopherol; for Standardised to tocopherol (relative antioxidative efficiency, RAE): % inhibition standardised to tocopherol; for AE/20 min: absorbance change at 236 nm, Reference 0.4567; for % inhibition: inhibition of linoleic acid oxidation versus reference. Here is the method: ABAP, which is water-soluble per se, is dispersed in SDS micelles. Linoleic acid (cis,cis-9,12-octadecadienoic acid) is likewise dispersed in SDS micelles. The free radicals cause the oxidation of linoleic acid to the isomer having conjugated double bonds. The formation of the conjugated double bond can be determined through the increase in the absorbance at 236 nm. The ability of the antioxidant to inhibit the rate of formation is determined relative to the tocopherol standard (in accordance with: Pryor, W. A., Cornicelli, […]., & Wu, M. (1993) A rapid screening test to determine the antioxidant potencies of natural and synthetic antioxidants. J Org Chem, 58, 3521-3532).

Series [5] can be described thus: TEAC assay (ABTS radical cation decolorisation). Type of series: biochemical. The settings on record: comparative experiment with starting substances. Here is the method: This free-radical cation has absorption maxima at 645 nm, 734 nm and 815 nm. The addition of an antioxidant to the ABTS free-radical cation results in reduction to ABTS. The magnitude of this conversion depends on the activity and concentration of the antioxidant and on the duration of the reaction. The reduction is evident from the decrease in absorbance, and the percentage of reduced ABTS is determined as a function of concentration and time and calculated relative to the reactivity of trolox (TEAC). […] This method can be used for the determination of antioxidants which are soluble in water or organic solvents (according to: Re, […]., Yang, M., & Rice, E. C. (1999) Antioxidant activity applying an improved ABTS radical cation decolorisation assay. Free Radical Biology and Medicine, 26, 1231-1237). The absorbance values measured after six minutes are used. The percentage of reduced ABTS is plotted against the concentration of the active ingredient (ASG I from Example 1 or trolox), and the slope of the lines is determined. In order to determine the TEAC value of ASG I, […].

Series [6] in a line: Hypoxanthine-xanthine oxidase test (superoxide scavenging, NBT reduction). It counts as biochemical. The note with it: value at which 50% of the original superoxide free-radical anion concentration is still present. How it is done:
Superoxide Free-Radical Anion Scavenging Efficiency of ASG I (Hypoxanthine-Xanthine Oxidase Test) Reaction of fresh xanthine oxidase with hypoxanthine in the presence of EDTA in aqueous solution gives superoxide free-radical anions. The free-radical anions are determined spectrophotometrically via the reduction of nitroblue tetrazolium (NBT) to nitroblue diformazan. The reduction is evident from the […] in the absorption band at 560 nm. […] The IC50 is the value at which 50% of the original superoxide free-radical anion concentration is still present. The lower this value, the higher the corresponding antioxidant activity.

Another series concerns the target tyrosinase. Briefly: Tyrosinase activity test with substrate L-tyrosine. Type of series: biochemical. The note with it: tyrosinase 10 units, L-tyrosine 4 mM, 37° C., 1 hour, OD 450 nm. Here is the method: Tyrosinase is the key enzyme in the synthesis of melanin. Substances which inhibit tyrosinase activity are therefore suitable as skin-lightening active ingredients. The action is also investigated with L-tyrosine as substrate and compared with that of reference substances. The substances and tyrosinase (10 units) are pre-incubated on ice for 10 minutes; tyrosine is then added (final concentration 4 mM), and the plates are incubated at 37° C. for 1 hour. The optical density at each test point is measured at 450 nm against the corresponding control without enzyme.

For series [7] the following is noted: test described in Gan, Seib 1998; cited from earlier work.
Series [8] can be described thus: Storage stability / hydrolysis of ASG I in EtOH:H2O solution. It counts as physicochemical. Here is the method:
The reducing action of each substance (DPPH test) as a function of time is investigated and expressed as the amount of substance in mg required to inhibit 1 mmol of the DPPH free radical (FIG. 1).
Under storage conditions (90 days at 40° C., 1 mol-percent solution in EtOH:H2O), only 50% of the initial concentration of ASG I is retained after 30 days.

The conditions of series [9]: no shift in absorbance of the complex induced by N3^−.

As a reminder, the IC50 is the point on the concentration scale where inhibition reaches its midpoint. The % inhibition is the share of the control response that was lost under treatment. Lower therefore signals little suppression.

Converted amounts (≈) assume the structure as drawn. “Also recorded” adds a separate entry of the source. Some results are limits rather than exact numbers.

Turning to `CCCCCCCCCCCCCCCC(=O)OC[C@H](O)[C@H]1OC(=O)C(O)=C1O` [Ascorbyl palmitate, 6-ascorbyl palmitate, reference compound], the “antioxidative action after storage (DPPH test)” value in [1] is reported as “lose their antioxidative action”. Further, in [2] (substance added pure), the Protection factor was 2.01. The molecule further yielded a DPPH free-radical scavenging in series [3] of 211 mg.

Molecule `O=C(O)c1cc(O)c(O)c(O)c1` [Gallic acid, reference compound] showed a Lipid test in series [4] of 0.37. Moreover, in [5], the TEAC was 2.76.

Take `Cc1c(C)c2c(c(C)c1O)CCC(C)(C(=O)O)O2` (centres unmarked) [Trolox]: the “IC50” value in [6] was 388 µg/mL (≈ 1550 µM).

In the case of `COc1cccc(C(=O)OC[C@H](O)[C@H]2OC(=O)C(O)=C2O)c1` [Substance 7, L-ascorbyl 6-O-(3-methoxy)benzoate], in series [3], the DPPH free-radical scavenging is more than 1000 mg.

Regarding `Cc1c(C)c2c(c(C)c1O)CCC(C)(CCCC(C)CCCC(C)CCCC(C)C)O2` (centres unmarked) [Vitamin E, reference compound], the Protection factor in series [2] (substance added pure) was 0.94.

For the molecule `O=C1O[C@H]([C@@H](O)COC(=O)c2ccc(O)cc2)C(O)=C1O` [Substance 4, L-ascorbyl 6-O-(4-hydroxy)benzoate], in series [3], the DPPH free-radical scavenging is recorded as 185 mg and the “antioxidative action (DPPH test), in words” value is listed as “virtually the same reducing action as vitamin C”.

`O=C1O[C@H]([C@@H](O)COC(=O)c2ccc(O)c(O)c2)C(O)=C1O` [Substance 3, L-ascorbyl 6-O-(3,4-dihydroxy)benzoate]: in series [3], the DPPH free-radical scavenging is 56 mg and the “antioxidative action (DPPH test), in words” value was “great antioxidative action”.

On to `O=C1O[C@H]([C@@H](O)CO)C([O-])=C1OP(=O)([O-])[O-].O=C1O[C@H]([C@@H](O)CO)C([O-])=C1OP(=O)([O-])[O-].[Mg+2].[Mg+2].[Mg+2]` [MAP, magnesium ascorbyl phosphate, reference compound], for which the IC50 on tyrosinase amounted to 33.1 mM. Moreover, the DPPH free-radical scavenging in [3] is recorded as more than 1000 mg.

Take `COc1cc(C(=O)OC[C@H](O)[C@H]2OC(=O)C(O)=C2O)cc(OC)c1O` [Substance 2, L-ascorbyl 6-O-(4-hydroxy-3,5-dimethoxy)benzoate]: in series [3], the DPPH free-radical scavenging is 185 mg and the “antioxidative action (DPPH test), in words” value is recorded as “virtually the same reducing action as vitamin C”.

For `O=c1c(O)c(-c2ccc(O)c(O)c2)oc2cc(O)cc(O)c12` [3,5,7,3′,4′-Pentahydroxyflavone, reference compound], in [3], the “AE (×10^−3)” value is given as 83 ×10^−3 and the TEC50 was 120 min.

As to `O=C1O[C@H]([C@@H](O)COC(=O)c2cc(O)c(O)c(O)c2)C(O)=C1O` [ASG I, L-ascorbyl 6-gallate], the “effectiveness as antioxidant, in words” value in series [7] is listed as “less effective than propyl gallate, but more effective than L-ascorbic acid or L-ascorbyl palmitate”. Further, the initial concentration retained in series [8] (1 mol-percent solution in EtOH:H2O, 40° C., after 30 days) is on record as 50%. The “stability, in words” value in [8] (pure substance versus aqueous solution) is recorded as “stable as the pure substance; also recorded: undergo hydrolysis in aqueous solution”. In addition, the “antioxidative action after storage (DPPH test)” value in [1] was “retained”. The same molecule yielded an IC50 at tyrosinase of 0.109 mM. Further, the Protection factor in series [2] (dissolved in ethanol) turned out to be 3.07. The same molecule had a Protection factor in [2] (substance added pure) of 1.22. Moreover, in series [2] (pure substance in soya oil, Rancimat test), the “solubility in soya oil” value is “only dissolves partially”. In series [9], the “complex formation with Fe^3+” value is recorded as “strong complex-forming properties”. In series [3], the DPPH free-radical scavenging was determined as 54 mg; the “AE (×10^−3)” value was 69.4 ×10^−3; the “antioxidative action (DPPH test), in words” value is “significantly greater antioxidative action than vitamin C or derivatives thereof”; the TEC50 came to 180 min. Further, the “IC50” value in [6] was 9.3 µg/mL (≈ 28.3 µM). Also, in [4], the “Standardised to tocopherol (relative antioxidative efficiency, RAE)” value was found to be 0.69; the AE/20 min was determined as 0.1594; the Lipid test is recorded as 0.69; the “% inhibition” value worked out at 65.1%. In series [4] (RAE expressed as percent of the activity of tocopherol), the “activity relative to tocopherol” value turned out to be 69%. This molecule had a TEAC in [5] of 3.65.

On to `Cc1c(C)c2c(c(C)c1O)CCC(C)(CCCC(C)CCCC(C)CCCC(C)C)O2` (centres unmarked) [Tocopherol, reference compound], for which, in series [3], the “AE (×10^−3)” value is 64.1 ×10^−3 and the TEC50 was less than 60 min. In addition, in [4], the “Standardised to tocopherol (relative antioxidative efficiency, RAE)” value came to 1.00; the AE/20 min came out at 0.0242; the “% inhibition” value is recorded as 94.7%.

`COc1ccc(C(=O)OC[C@H](O)[C@H]2OC(=O)C(O)=C2O)cc1` [Substance 5, L-ascorbyl 6-O-(4-methoxy)benzoate]: in series [3], the DPPH free-radical scavenging was 161 mg and the “antioxidative action (DPPH test), in words” value is “virtually the same reducing action as vitamin C”.

As for `O=C1O[C@H]([C@@H](O)CO)C(O)=C1O` [Vitamin C, ascorbic acid, reference compound], the “antioxidative action after storage (DPPH test)” value in [1] is “lose their antioxidative action”. In series [3], the DPPH free-radical scavenging is 102 mg, the “AE (×10^−3)” value is 61.72 ×10^−3 and the TEC50 was less than 60 min. In addition, the half-maximal inhibitory concentration (IC50) in series [6] came to 25.5 µg/mL (≈ 145 µM). Moreover, in [4], the Lipid test is on record as 0.09. This molecule displayed a TEAC in series [5] of 1.

In series [3], `O=C1O[C@H]([C@@H](O)COC(=O)c2cccc(O)c2)C(O)=C1O` [Substance 6, L-ascorbyl 6-O-(3-hydroxy)benzoate] registered a DPPH free-radical scavenging of 193 mg.

Values taken from US20060039937A1, “Composition having antioxidant properties” (priority 2003, published 2006).
